The data set is described as follows: Glyburide particle size by laser light scattering / laser diffraction. It counts as physicochemical. The following applies: drug substance, laser diffraction particle size analysis. Here is the method: Data from studies with metformin hydrochloride/glyburide tablets formulated with glyburide of different particle size characteristics allowed for the development of a correlation between glyburide particle size and the in vivo performance. The desired particle size distribution may be obtained by sieving or, preferably, air jet milling, and was measured by a laser light scattering method. The particle size measurement method of laser light scattering uses drug substance dispersed in liquid paraffin for introduction into the measurement cell. The apparatus produces a volume based, cumulative size distribution. […] The mill was operated with a Venturi nitrogen pressure of approximately 1.5 atmospheres and a micronization chamber pressure of 4 atmospheres. Size reduction was not allowed to proceed to the extent normally employed to make glyburide that would be described as micronized. The mill was turned off and the drug substance was discharged from it. A sample of the size-reduced glyburide was evaluated by a laser diffraction particle size analysis method.

`COc1ccc(Cl)cc1C(=O)NCCc1ccc(S(=O)(=O)NC(=O)NC2CCCCC2)cc1` [Example 1, 5-chloro-N-[2-[4-[[[(cyclohexylamino)-carbonyl]amino]sulfonyl]phenyl]ethyl]-2-methoxybenzamide] yielded a D25% of 5 microns, a D50% of 9 microns and a D75% of 21 microns.
On the same counts, the results for `COc1ccc(Cl)cc1C(=O)NCCc1ccc(S(=O)(=O)NC(=O)NC2CCCCC2)cc1` [commercially available micronized sample] are 2.8 microns, 4.5 microns and 7.3 microns.

The values above are taken from patent publication US6830760B2, “Glyburide composition” (Bristol-Myers Squibb Company, priority 2000, dated 2004).
